Results taken from patent publication US8293796B2, “Modulator” (University College London, priority 2004, dated 2012).
“Also recorded” adds a separate entry of the source. Read-outs that look alike come from different tables or passages of the source.

Legend:
wildtype mice = test: hypothermia and hypomotility (temperature and 5 minute motility in openfield activity chamber) in wildtype mice; assay type: in vivo, mouse
Protocol: Many CB1 agonists are known to induce psychotrophic associated “tetrad effects” due to central binding to CB receptors [Howlett, A. C. et al, International Union of Pharmacology. XXVII, Pharmacol. Rev. 2002, 54, 161-202]. Studies were undertaken to investigate whether the compounds of the present invention also bound to central CB1 receptors. This is assessed by measuring the ability of the compounds to induce sedation, ptosis, hypomotility, catalepsy and hypothermia in normal mice [Brooks, J. W. et al, Eur. J. Pharmacol. 2002, 439, 83-92], following i.v., i.p. and oral administration.
A CNS excluded compound provides a tool for examining if a component of a cannabinoid anti-spastic effect is mediated via peripheral CB receptors. […] As stated above there is no established role for peripheral cannabinoid receptors in the control of spasticity, however, spasticity is likely to be a product of nerve damage in the spinal cord, at least in EAE, [Baker, D. et al, FASEB J. 2001, 15, 300-302; Baker, D. et al, J. Neuroimmunol. 1990, 28, 261-270] and aberrant signals to and from the musculature are likely, at least in part to contribute to the muscle spasms occurring in spasticity.

CB1 receptor = target: T1, CB1 receptor (Mus musculus, UniProt P47746); test: vas deferens inhibition of contractions (cannabinoid receptor modulating activity)
T1 construct: from tissue; host or cells: mouse vas deferens (isolated tissue preparation)

CREAE mice = test: assessment of spasticity in CREAE mice (resistance to full flexion of hindlimbs against a strain gauge); assay type: in vivo, mouse
Protocol: Spasticity developed following the development of chronic EAE induced by injection of mouse spinal cord homogenate in Freund's complete adjuvant on day 0 & 7. This occurred 60-80 days post-induction in wildtype ABH.Cnr1+/+ mice and 30-40 days post-induction in CB1 receptor gene (Cnr1)-deficient ABH.Cnr1−/− mice). Spasticity was assessed by resistance to full flexion of hindlimbs against a strain gauge [Baker et al 2000], before and after treatment with either the full CB1/CB2 agonist CP55,940 or full CB1/CB2/“CB3” agonist injected intraperitoneally or compound (16) injected intravenously in vehicle (alcohol:cremophor:PBS (1:1:18)). […] Statistical analysis was performed on raw data and were analysed pairwise from baseline levels (*** P<0.001).
Further studies were undertaken using cannabinoid knockout mice, including CB1, CB2, VR-1, FAAH and conditional CB1 knockout mice. […] Spasticity is assessed (n=6-7/group) by resistance to hindlimb flexion using a strain gauge [Baker, D. et al, Nature 2000, 404, 84-87]. Animals serve as their own controls and will be analysed in a pairwise fashion. […] Low doses of CB1 agonists and CNS active CP55,940, as control, are locally (subcutaneous, intra-muscularly) administered into spastic ABH mice and the lack of activity in a contralateral limb analysed [Fox, A. et al, Pain 2001, 92, 91-100]. […]

T1 sequence (P47746 whole entry): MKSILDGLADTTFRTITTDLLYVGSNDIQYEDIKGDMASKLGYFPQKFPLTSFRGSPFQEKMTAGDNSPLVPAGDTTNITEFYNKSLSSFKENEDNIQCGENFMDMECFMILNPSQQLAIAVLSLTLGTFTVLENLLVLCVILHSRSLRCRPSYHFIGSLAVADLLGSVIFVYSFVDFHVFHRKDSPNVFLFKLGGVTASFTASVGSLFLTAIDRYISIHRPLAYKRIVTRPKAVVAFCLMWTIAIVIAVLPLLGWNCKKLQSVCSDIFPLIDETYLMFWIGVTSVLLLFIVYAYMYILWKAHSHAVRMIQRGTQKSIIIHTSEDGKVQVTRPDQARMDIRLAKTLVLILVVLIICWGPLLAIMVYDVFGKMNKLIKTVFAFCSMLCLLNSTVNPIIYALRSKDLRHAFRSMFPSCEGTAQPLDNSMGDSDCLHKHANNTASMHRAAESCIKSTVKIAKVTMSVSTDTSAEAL

## Cc1c(C(=O)c2cccc3ccccc23)c2cccc3c2n1[C@H](CN1CCOCC1)CO3 [R(+)WIN55,212, reference compound]
Wildtype mice; wildtype mice, 20 min after injection, dose not given
  CNS effects: temperature and motility: induced typical cannabinmimetic effects

## CC(CO)NC(=O)c1cccc(/C=C\CCCC(=O)N(C)C)c1 (racemic) [Compound 16, 3-(5-Dimethylcarbamoyl-pent-1-enyl)-N-(2-hydroxy-1-methyl-ethyl)benzamide]
CB1 receptor; in presence of SR141716A
  effect of CB1 antagonist SR141716A on the compound's effect in vas deferens: neutralised by the CB1-antagonist SR141716A; also recorded: inhibited by the selective CB1 antagonist SR141716A
CB1 receptor; mouse vas deferens preparation, FIG. 1, read-out: IC50, vas deferens preparation
  IC50: ~1000 pM
CB1 receptor; rat vas deferens, FIG. 1 legend, read-out: IC50, inhibition of contractions
  IC50: ~100 pM
Wildtype mice; wildtype mice, 20 mg/kg i.v.
  CNS effects: hypothermia and hypomotility: inactive
Wildtype mice; wildtype/normal mice, 1 mg/kg, 20 min after injection, 1 mg/kg
  CNS effects: hypothermia and hypomotility: inactive; also recorded: no hypothermia or hypomotility was observed
CREAE mice; administered in PBS alone (not shown)
  anti-spastic activity: active
CREAE mice; wildtype ABH mice with CREAE, injected intravenously in alcohol:cremophor:PBS (1:1:18), 10 minutes after administration
  anti-spastic activity: significant anti-spastic activity; also recorded: marked effect on spasticity; also recorded: selective inhibition of spasticity without producing CNS effects
